Laboratory results as given in ChEMBL document CHEMBL1128828, “Convergent approach to water soluble camptothecin derivatives” (1995).

How the values were obtained:
Assay type in all cases: functional
Details in all cases: route intravenous
[1] = test system: Mus musculus; assay: Inhibitory effect on the growth of P388/CPT tumor cell line transplanted subcutaneously into mice at dose of 2 mg/kg/day x 5 administered intravenously
[2] = test system: Mus musculus; assay: Inhibitory effect on the growth of P388/CPT tumor cell line transplanted subcutaneously into mice at dose of 4 mg/kg/day x 5 administered intravenously
[3] = test system: Mus musculus; assay: Inhibitory effect on the growth of Colon 26 tumor cell line transplanted subcutaneously into mice at dose of 4 mg/kg/day x 5 administered intravenously
[4] = test system: Mus musculus; assay: Inhibitory effect on the growth of Colon 26 tumor cell line transplanted subcutaneously into mice at dose of 2 mg/kg/day x 5 administered intravenously

**Q.** Which results are given for `CC[C@@]1(O)C(=O)OCc2c1cc1n(c2=O)Cc2cc3c(CN(C)C)c(O)ccc3nc2-1` [TOPOTECAN]?
**A.** T/C [1]: 59%; T/C [2]: 46%; T/C [3]: 51%; T/C [4]: 60%

**Q.** How did the T/C [1] turn out when `CCC1(O)C(=O)OCc2c1cc1n(c2=O)Cc2c-1nc1cc3c(cc1c2CCN)OCO3.O=C(O)C(F)(F)F` (stereo not drawn) was run?
**A.** 65%

**Q.** And the T/C [2]?
**A.** 36%

**Q.** What about the T/C [3] of the same molecule?
**A.** 49%

**Q.** And the T/C [4]?
**A.** 55%
